Here are results for 6 compounds from ChEMBL document CHEMBL5465560, “Selectivity Literature for EUbOPEN Chemogenomic Library” (2024).

Experiment [1] addresses T1, Dual specificity mitogen-activated protein kinase kinase 6 (Homo sapiens) (UniProt P52564).
T1 sequence (whole entry): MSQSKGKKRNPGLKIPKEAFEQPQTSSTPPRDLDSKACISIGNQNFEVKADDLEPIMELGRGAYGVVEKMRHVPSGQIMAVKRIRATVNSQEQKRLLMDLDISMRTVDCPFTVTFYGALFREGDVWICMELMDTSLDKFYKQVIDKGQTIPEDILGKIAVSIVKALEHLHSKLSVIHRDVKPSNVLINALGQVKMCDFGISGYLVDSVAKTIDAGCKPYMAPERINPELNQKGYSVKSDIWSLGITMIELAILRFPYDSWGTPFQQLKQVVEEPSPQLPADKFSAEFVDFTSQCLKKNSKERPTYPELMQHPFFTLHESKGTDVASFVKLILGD
The settings on record: at 10 µM.

The target of experiment [2] is Histone-lysine N-methyltransferase 2A (Homo sapiens) (UniProt Q03164). Kind of experiment: Selectivity interaction (Methyltransferase screen (radiometric assays, panel of 8 PRMTs, 21 protein lysine methyltransferases, 3 DNA methyltransferases, and one RNA methyltransferase)) EUB0000271b MLL.
The target in experiment [3] is T2, NUAK family SNF1-like kinase 2 (Homo sapiens) (UniProt Q9H093).
T2 sequence (whole entry): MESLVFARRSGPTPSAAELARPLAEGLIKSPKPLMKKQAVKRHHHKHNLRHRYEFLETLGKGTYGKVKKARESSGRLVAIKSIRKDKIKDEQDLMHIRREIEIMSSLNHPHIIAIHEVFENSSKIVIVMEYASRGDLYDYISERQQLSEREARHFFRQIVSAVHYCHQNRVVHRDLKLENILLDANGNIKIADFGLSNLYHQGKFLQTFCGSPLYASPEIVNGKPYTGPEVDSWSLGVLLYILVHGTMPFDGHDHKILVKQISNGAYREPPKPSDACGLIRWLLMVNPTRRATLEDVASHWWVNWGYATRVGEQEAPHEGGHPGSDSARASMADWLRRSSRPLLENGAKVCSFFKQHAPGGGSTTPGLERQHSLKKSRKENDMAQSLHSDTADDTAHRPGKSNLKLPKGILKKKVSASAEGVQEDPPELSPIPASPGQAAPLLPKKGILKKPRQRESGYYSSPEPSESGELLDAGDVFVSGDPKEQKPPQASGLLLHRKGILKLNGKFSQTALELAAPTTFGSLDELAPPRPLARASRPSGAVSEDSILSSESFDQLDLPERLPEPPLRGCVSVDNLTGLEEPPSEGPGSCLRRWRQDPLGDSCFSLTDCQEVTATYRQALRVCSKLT
In words: Selectivity interaction (LanthaScreen Eu Kinase Binding Assay) EUB0001632a NUAK2. The settings on record: at 10 µM.

Experiment [4] deals with Serine/threonine-protein kinase 26 (Homo sapiens, UniProt Q9P289). In words: Selectivity interaction (KinomeScan (DiscoverX)) EUB0000607a STK26. The settings on record: at 10 µM.
The target of experiment [5] is T3, Peripheral plasma membrane protein CASK (Homo sapiens) (UniProt O14936).
T3 sequence (whole entry): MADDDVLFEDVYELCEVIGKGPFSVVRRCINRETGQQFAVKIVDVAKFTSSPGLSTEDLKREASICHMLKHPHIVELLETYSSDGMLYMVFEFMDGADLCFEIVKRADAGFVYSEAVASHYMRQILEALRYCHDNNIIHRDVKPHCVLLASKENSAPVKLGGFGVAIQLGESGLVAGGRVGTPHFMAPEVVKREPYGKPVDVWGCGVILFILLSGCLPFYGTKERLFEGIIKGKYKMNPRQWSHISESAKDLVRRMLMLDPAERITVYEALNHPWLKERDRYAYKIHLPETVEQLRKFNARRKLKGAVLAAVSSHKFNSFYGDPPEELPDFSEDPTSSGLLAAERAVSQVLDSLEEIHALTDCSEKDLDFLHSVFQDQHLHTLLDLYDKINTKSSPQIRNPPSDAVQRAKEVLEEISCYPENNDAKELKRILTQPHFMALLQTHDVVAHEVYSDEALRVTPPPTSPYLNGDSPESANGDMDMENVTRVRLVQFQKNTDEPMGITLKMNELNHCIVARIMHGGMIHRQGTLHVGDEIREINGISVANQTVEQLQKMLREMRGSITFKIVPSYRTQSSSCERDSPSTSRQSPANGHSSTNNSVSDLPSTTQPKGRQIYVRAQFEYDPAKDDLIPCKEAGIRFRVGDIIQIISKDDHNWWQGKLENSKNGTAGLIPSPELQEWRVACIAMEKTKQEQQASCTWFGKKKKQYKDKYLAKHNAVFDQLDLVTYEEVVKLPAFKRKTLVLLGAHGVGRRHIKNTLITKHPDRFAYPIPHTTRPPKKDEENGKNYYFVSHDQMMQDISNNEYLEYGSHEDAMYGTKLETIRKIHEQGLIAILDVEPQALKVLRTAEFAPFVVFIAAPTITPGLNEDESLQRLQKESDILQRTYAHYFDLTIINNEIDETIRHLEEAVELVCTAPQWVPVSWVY
In words: Selectivity interaction (KinomeScan (DiscoverX)) EUB0001619a CASK. The settings on record: at 1 µM.

Experiment [6] addresses T4, Beta-adrenergic receptor kinase 1 (Homo sapiens) (UniProt P25098).
T4 sequence (whole entry): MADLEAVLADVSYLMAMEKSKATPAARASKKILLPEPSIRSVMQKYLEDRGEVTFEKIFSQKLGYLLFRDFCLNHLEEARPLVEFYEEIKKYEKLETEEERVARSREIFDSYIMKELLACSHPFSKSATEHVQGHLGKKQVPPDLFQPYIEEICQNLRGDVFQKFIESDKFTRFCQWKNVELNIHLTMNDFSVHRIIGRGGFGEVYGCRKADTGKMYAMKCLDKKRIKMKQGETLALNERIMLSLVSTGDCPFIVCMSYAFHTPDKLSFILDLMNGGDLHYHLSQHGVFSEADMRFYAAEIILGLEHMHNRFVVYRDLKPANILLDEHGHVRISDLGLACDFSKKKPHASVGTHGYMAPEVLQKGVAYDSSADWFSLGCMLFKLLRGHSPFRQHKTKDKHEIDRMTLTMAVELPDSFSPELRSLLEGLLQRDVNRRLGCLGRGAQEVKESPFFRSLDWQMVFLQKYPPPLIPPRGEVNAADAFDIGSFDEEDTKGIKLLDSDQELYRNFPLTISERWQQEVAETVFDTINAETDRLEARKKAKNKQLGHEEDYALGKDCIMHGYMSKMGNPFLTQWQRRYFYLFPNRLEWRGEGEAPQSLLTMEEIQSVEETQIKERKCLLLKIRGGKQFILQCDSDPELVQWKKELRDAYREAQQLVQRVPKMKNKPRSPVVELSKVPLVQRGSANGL
In words: Selectivity interaction (Kinase panel (KiNativ target engagement assay in Jurkat cells)) EUB0001635a ADRBK1. The class given is cell-based. The settings on record: Selectivity number of off-targets 0.0, Selectivity number of targets 233.0, Source Knowledge https://www.sciencedirect.com/science/article/pii/S2451945619300674?via%3Dihub, at 1 µM.

Chain of Histone-lysine N-methyltransferase 2A (Homo sapiens) (Q03164 1-2718 limits assumed): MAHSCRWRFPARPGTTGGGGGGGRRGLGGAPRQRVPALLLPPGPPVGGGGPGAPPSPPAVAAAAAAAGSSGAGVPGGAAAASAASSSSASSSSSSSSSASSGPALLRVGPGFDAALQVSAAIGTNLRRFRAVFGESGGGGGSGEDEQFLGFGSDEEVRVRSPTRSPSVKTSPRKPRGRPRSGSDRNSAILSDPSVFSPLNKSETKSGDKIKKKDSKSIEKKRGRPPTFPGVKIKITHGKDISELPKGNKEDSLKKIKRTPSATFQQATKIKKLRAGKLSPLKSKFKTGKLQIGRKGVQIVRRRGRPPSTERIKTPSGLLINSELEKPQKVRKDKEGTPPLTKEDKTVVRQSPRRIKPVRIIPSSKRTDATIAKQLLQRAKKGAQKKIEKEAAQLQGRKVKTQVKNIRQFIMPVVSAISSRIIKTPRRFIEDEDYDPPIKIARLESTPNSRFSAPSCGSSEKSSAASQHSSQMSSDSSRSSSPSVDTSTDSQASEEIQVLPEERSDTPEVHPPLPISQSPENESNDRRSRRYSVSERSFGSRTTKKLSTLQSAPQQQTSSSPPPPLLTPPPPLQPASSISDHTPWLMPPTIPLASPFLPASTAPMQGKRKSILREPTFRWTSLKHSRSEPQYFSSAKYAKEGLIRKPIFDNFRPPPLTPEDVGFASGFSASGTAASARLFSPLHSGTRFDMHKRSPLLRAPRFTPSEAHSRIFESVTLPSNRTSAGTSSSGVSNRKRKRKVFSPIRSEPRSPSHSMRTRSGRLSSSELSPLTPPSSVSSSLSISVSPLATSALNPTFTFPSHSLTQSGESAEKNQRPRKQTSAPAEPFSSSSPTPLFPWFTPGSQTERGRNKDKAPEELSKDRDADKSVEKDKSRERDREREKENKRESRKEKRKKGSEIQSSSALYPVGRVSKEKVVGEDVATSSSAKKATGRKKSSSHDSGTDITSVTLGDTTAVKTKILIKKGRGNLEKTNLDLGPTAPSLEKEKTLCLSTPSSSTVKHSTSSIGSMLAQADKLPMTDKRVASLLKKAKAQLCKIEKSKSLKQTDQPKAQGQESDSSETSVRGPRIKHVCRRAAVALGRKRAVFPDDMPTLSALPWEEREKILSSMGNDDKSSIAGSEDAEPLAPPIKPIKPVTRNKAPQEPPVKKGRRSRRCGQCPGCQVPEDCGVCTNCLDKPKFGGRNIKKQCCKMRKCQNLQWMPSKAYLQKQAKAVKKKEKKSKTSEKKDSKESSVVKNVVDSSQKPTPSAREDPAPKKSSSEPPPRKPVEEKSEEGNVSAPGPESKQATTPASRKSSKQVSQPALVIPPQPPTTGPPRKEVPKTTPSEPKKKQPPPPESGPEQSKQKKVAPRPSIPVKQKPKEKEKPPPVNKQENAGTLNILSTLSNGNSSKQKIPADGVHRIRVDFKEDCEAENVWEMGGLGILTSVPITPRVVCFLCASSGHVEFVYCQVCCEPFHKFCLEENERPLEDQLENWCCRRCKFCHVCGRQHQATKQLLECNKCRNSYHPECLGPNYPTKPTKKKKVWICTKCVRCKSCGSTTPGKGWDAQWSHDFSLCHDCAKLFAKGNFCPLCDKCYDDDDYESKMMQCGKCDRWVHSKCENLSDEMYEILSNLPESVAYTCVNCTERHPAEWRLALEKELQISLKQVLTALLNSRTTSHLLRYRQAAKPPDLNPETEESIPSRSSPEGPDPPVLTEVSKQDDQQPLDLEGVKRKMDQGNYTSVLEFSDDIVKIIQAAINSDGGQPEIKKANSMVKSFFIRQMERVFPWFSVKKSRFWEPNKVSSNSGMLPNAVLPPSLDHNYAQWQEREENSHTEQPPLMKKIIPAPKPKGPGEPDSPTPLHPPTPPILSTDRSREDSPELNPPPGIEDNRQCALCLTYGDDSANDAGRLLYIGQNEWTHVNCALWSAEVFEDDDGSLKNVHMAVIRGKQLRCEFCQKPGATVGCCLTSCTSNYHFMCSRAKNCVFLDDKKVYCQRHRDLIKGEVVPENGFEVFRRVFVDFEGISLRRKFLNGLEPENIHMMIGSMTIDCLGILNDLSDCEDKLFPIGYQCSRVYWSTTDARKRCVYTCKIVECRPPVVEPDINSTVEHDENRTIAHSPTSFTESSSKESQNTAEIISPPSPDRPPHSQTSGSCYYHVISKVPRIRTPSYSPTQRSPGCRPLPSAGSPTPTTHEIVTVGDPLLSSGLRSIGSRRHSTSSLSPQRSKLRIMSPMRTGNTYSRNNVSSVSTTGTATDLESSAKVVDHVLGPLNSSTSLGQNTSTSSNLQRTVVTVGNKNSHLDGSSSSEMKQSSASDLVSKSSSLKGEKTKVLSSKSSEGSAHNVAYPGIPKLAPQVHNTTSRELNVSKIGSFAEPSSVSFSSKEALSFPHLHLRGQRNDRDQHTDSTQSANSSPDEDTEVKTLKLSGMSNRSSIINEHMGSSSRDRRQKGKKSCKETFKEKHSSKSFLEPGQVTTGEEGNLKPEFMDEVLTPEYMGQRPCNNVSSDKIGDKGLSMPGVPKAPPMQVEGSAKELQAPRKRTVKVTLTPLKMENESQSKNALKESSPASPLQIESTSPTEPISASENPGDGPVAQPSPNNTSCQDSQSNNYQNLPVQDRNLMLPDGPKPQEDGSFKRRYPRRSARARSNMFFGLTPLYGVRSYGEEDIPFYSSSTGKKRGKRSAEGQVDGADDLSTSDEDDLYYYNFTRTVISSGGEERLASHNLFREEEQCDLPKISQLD
Chain of Histone-lysine N-methyltransferase 2A (Homo sapiens) (Q03164 2719-3969 limits assumed): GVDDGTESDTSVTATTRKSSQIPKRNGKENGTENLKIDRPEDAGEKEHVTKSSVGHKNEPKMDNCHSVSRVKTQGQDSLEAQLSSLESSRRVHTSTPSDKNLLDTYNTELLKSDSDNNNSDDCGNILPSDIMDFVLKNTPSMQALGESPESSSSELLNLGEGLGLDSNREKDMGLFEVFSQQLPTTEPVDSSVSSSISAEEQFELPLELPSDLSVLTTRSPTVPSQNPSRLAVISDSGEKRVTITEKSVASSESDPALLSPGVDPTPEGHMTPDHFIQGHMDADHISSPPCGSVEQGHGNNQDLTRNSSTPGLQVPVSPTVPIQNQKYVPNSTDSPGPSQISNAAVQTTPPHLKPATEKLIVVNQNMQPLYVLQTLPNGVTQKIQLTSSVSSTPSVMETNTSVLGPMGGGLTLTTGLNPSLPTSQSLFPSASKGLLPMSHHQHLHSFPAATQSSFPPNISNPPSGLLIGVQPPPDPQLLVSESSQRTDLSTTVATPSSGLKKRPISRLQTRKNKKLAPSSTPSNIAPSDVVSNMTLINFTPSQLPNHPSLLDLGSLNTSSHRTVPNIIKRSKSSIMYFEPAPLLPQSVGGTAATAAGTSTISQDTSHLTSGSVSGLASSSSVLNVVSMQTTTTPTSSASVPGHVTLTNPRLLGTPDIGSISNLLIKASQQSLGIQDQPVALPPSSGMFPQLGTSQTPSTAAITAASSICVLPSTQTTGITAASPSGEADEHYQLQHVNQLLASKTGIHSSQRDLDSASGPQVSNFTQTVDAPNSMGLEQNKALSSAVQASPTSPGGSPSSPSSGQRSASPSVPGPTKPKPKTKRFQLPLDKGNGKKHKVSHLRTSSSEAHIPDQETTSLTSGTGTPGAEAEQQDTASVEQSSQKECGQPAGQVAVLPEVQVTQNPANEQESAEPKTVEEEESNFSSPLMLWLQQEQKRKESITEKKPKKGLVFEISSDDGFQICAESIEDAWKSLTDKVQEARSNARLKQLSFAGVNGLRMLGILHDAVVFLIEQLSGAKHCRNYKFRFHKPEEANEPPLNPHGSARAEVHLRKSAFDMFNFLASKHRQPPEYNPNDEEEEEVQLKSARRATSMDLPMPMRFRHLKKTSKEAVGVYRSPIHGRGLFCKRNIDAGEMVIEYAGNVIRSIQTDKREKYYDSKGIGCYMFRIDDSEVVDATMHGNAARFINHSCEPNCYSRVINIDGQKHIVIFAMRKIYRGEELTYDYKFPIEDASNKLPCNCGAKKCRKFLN
Chain of Serine/threonine-protein kinase 26 (Q9P289 2-416 limits assumed): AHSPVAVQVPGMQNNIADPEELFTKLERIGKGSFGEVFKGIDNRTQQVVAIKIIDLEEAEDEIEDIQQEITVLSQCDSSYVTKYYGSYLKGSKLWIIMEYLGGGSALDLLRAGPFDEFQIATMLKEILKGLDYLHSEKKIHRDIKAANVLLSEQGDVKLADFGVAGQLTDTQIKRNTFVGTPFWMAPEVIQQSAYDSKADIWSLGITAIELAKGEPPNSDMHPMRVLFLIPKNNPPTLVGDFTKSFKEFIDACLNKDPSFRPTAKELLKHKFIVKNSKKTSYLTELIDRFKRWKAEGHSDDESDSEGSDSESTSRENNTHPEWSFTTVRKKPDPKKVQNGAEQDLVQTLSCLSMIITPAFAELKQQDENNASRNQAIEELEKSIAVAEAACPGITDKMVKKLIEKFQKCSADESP

With `Cc1cc([C@@H](C)Nc2ccccc2C(=O)O)c2nc(N3CCOCC3)cc(=O)n2c1` [AZD-6482], the % of control in experiment [1] was found to be 92%. With `Cc1cc(C)cc([C@@H]2c3cc(C)ccc3NC(=O)CN2C(=O)c2ccc(Br)s2)c1`, the % of activity is 99.7% in experiment [2] (at 1 µM) and 103% in experiment [2] (at 10 µM). In the case of `Cn1cc(-n2cnc3c(NCc4nc5cc(Cl)c(Cl)cc5[nH]4)nc(N4CCOCC4)nc32)cn1`, in experiment [3], the % of inhibition was -12.8%. `CNC(=O)Nc1ccc(-c2nc(N3CC4CCC(C3)O4)c3cnn(C4CCC5(CC4)OCCO5)c3n2)cc1` came in with a % of control in experiment [4] of 70%. Consider `N#Cc1cccc(-c2c[nH]c3ncnc(N4CCOCC4)c23)c1`, for which, in experiment [5], the % of control turned out to be 66%.

For the compound `C=CC(=O)Nc1ccc(C(=O)Nc2[nH]nc3c2CN(C(=O)N[C@H](CN(C)C)c2ccccc2)C3(C)C)cc1`, the % of engagement in experiment [6] was -2.6%.
